Data on three compounds can be found in US20020192286A1, “Biodegradable triblock copolymers as solubilizing agents for drugs and method of use thereof” (Macromed, Incorporated, priority 2001, published 2002).

What is called solubility is the concentration that dissolves in the medium under given conditions. A lower solubility goes with a poorly soluble substance.

Series [1] can be described thus: Solubility of amphotericin B in 23 wt % triblock copolymer solution. The class given is physicochemical. As for the experimental part: Triblock copolymer of Example 2 (entry number 1) was used. The drug was mixed with the copolymer solution (23 wt % copolymer in water). The mixture was allowed to stand for 30 minutes before filtration.
Series [2] in a line: Behaviour of the polymer solution in aqueous liquid at 35-42° C. Format: physicochemical. The following applies: copolymer with drug; between at least 35-42° C. The method, then:
PEG (Mw=1450; 476.2 g) was dried under vacuum (1 mmHg) at 130° C. for 5 hours. D,L-Lactide (412.9 grams) and glycolide (110.9 grams) were added to the flask and heated to 145° C. to afford a homogenous solution. Polymerization was initiated by the addition of 250 mg stannous octoate to the reaction mixture. After maintaining the reaction for five hours at 145° C., the reaction was stopped and the flask was cooled to room temperature. Unreacted lactide and glycolide were removed by vacuum distillation. […] The copolymer was purified twice by dissolving in water to afford a 25% solution, and letting the solution stir overnight at room temperature followed by elevating the solution temperature to 70° C. to precipitate the polymer. Excess water was removed by freeze drying. […] The GPC was performed on two Phenogel columns (300×7.8), 500 Å, and a mixed bed, connected in series. Mobile phase was tetrahydrofuran. Calibration was with PEG standards. Detection was by refractive index.

For series [3] the following is noted: cited from earlier work.
Series [4] in a line: physchem. The method, then:
Triblock copolymers of Example 2 were used. The neat polymer and the drug were mixed and gently heated (ca. 50° C.) to completely dissolve the drug. Water was added to the mixture to afford a 23% by weight aqueous solution of the triblock copolymers. The solution was allowed to stand for 30 minutes before filtration (0.2 μm pore size filter).

Series [5] can be described thus: physchem. As for the experimental part:
Polymer solutions containing 23% by weight of the copolymer were prepared in water, and paclitaxel was added to the solution and the mixture was stirred for approximately 20 minutes.
This is another data set of the same source.

The structures appear in SMILES notation. Values after ≈ are worked out from the molar mass of the structure shown.

Turning to `C[C@@H]1[C@H](O)[C@@H](C)/C=C/C=C/C=C/C=C/C=C/C=C/C=C/[C@H](O[C@@H]2O[C@H](C)[C@@H](O)[C@H](N)[C@@H]2O)C[C@@H]2O[C@](O)(C[C@@H](O)C[C@@H](O)[C@H](O)CC[C@@H](O)C[C@@H](O)CC(=O)O[C@H]1C)C[C@H](O)[C@H]2C(=O)O` [amphotericin B], the “solubility in the aqueous triblock copolymer solution” value in series [1] (23 wt % copolymer of Example 2 entry number 1 in water, 30 minutes, filtered) was found to be 150 µg/mL (≈ 162 µM). Besides, the increase of solubility in series [1] (copolymer solution versus pure water) was found to be 50 fold. In series [2], the “state of polymer solution containing drug when mixed with an aqueous liquid” value (shortened to “state”) is “remained as a free flowing liquid”. Besides, the “reported solubility in pure water” value in series [3] is 3 µg/mL.

In “physchem [4]” (25 °C, aqueous with cosolvent or surfactant or cyclodextrin, Drug Solubility), `COC1=CC(=O)C[C@@H](C)[C@]12Oc1c(Cl)c(OC)cc(OC)c1C2=O` [griseofulvin] showed a solubility at 30 min of 1500 µg/mL (≈ 4250 µM). Besides, the “Drug Solubility” value in the series “physchem [4]” (30 min) was found to be 1570 µg/mL. The same compound had a solubility in “physchem [4]” (water, water solubility) of 10 µg/mL (≈ 28.3 µM). Moreover, the “state” value in series [2] is listed as “remained as free flowing liquids”.

Regarding `CC(=O)O[C@H]1C(=O)[C@@]2(C)[C@H]([C@H](OC(=O)c3ccccc3)[C@]3(O)C[C@H](OC(=O)[C@H](O)[C@@H](NC(=O)c4ccccc4)c4ccccc4)C(C)=C1C3(C)C)[C@]1(OC(C)=O)CO[C@@H]1C[C@@H]2O` [paclitaxel], the increase of solubility result in the series “physchem [5]” was “at least 5000 fold”. For the same compound, the solubility is greater than 25000 µg/mL in “physchem [5]” (aqueous with cosolvent or surfactant or cyclodextrin, thermodynamic from solid) and roughly 5 µg/mL (≈ 5.86 µM) in “physchem [5]” (water). The “state” value in series [2] is recorded as “remained as a free flowing liquid”.
